This is an account of results in patent US11779594B2, “Compositions for the treatment of epithelial lesions” (INTERNATIONAL HEALTH SCIENCE S.R.L., priority 2019, dated 2023).

This assay has as its system COLO-680N esophagus cells. As to the kind of experiment: scratch wound healing of COLO-680N esophagus cell monolayer irritated with BSC medium. It counts as cell-based, human. The following applies: COLO-680N cells treated with BSC; vs placebo, P<0.05 (FIG. 5). The method, then: The adhesive, barrier, soothing and repairing effects of a composition of the invention was studied in different experimental models of esophageal epithelial cells (i.e. CP-A and COLO-680N) by simulating in vitro the damage induced by gastric content on the esophagus.
To this aim, we incubated the cell monolayer with a medium (named BSC) containing bile salts cocktail, pepsin and pH 2.5 (thus simulating the gastric juice).
The significant repairing effect was assessed as described in FIG. 1-5. Confluent monolayers of COLO-680N esophagus cells, cultured in a 24 well plate, were scraped with a pipette tip and, after washing twice with PBS, were incubated with BSC (irritant medium simulating the gastro-intestinal juice) or culture medium alone as a negative control. […] Wound closure (healing) was evaluated up to 24 h under a Leica DMIL inverted microscope (Leica Microsystem) and images were collected using a Canon Powershot A640 digital camera (Canon). The cellular movements, distance and cell number were used for quantitative evaluations. The images were analyzed by ImaJ software. Results were analyzed by statistical method for assessing the significance compared to both controls and single component of the invention; the differences were considered significant for p<0.05 (FIG. 5).

For the substance sodium hyaluronate [HA], the “quantified wound healing effect (number of cells, movements, distance covered)” value is recorded as “do not exert wound healing effect”.
